PubChem BioAssay (NCI)
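Results reflect a 48-hour exposure of cells in 96-well plates to compound at five concentrations. The concentration for full growth arrest is given as TGI.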

How the values were obtained:
Assay in all cases: NCI anticancer screen, dose series, 48 h
[1] = system: A498 renal
[2] = system: HCC-2998 colon
[3] = system: HOP-62 NSCLC
[4] = system: HT29 colon
[5] = system: NCI-H226 lung
[6] = system: NCI-H522 lung
[7] = system: OVCAR-5 ovarian
[8] = system: SF-268 CNS
[9] = system: SN12C renal
[10] = system: SW-620 colon
[11] = system: MDA-N
[12] = system: NCI/ADR-RES ovarian
[13] = system: PC-3 prostate
[14] = system: T-47D breast

| SMILES | TGI [1] [µM] | TGI [2] [µM] | TGI [3] [µM] | TGI [4] [µM] | TGI [5] [µM] | TGI [6] [µM] | TGI [7] [µM] | TGI [8] [µM] | TGI [9] [µM] | TGI [10] [µM] | TGI [11] [µM] | TGI [12] [µM] | TGI [13] [µM] | TGI [14] [µM] |
| --- | --- | --- | --- | --- | --- | --- | --- | --- | --- | --- | --- | --- | --- | --- |
| Nc1ccc(C(=O)NN2C(=O)C(Cl)C2c2ccc([N+](=O)[O-])cc2)cc1 (stereo not drawn) | 38.6 | 21.2 | 23.2 | 32.6 | 34.9 | 3.21 | 41.6 | 12.2 | 30 | 26.2 |  |  |  |  |
| O=C(Nc1ccccc1)Nn1c(-c2cccs2)nc2ccc(I)cc2c1=O |  | 55.3 | > 100 | 84.7 | > 100 | 44.7 | > 100 | > 100 | > 100 | > 100 | 74.6 | > 100 | > 100 | 17.2 |
| CCn1c(-c2ccccc2)nc2c1C(=O)c1ccccc1C2=O |  | 51.4 | > 100 | 30.3 | 71.6 | 43 | 82.8 |  | > 100 | > 100 | 36.9 | 33.9 | 64.3 |  |
| CCN(CC)CCNc1ccc2ncn3c4c(OC)cccc4c(=O)c1c23 | 33.4 | 18.6 | 98 | 36.1 | 20.8 | 20.7 |  | 17.6 | 17.7 | 15.9 | 17.1 |  | 17.6 | > 100 |
| CC1CC(=O)C(CC(=O)O)C1C(C(=O)C(=O)Nc1c(C#N)cccc1[N+](=O)[O-])[N+](=O)[O-] (stereo not drawn) | > 100 | > 100 | > 100 | > 100 | > 100 |  | > 100 | > 100 |  | > 100 |  |  |  |  |
| CC(C)[Si](OCC1CC(C[C@H]2CC(C[C@H]3C[C@@H](CO[Si](C(C)C)(C(C)C)C(C)C)OC(C)(C)O3)OC(C)(C)O2)OC(C)(C)O1)(C(C)C)C(C)C (stereo partly drawn) | > 100 | > 100 | > 100 | > 100 | > 100 | > 100 | > 100 | > 100 |  | > 100 |  |  |  |  |
| O=C1SC(c2ccccc2)(c2ccccc2)c2ccccc21 |  | > 100 | > 100 | > 100 | > 100 | > 100 |  | > 100 | > 100 | > 100 |  |  |  |  |
| O=C(O)C(Cc1cnc[nH]1)N=Cc1nc(-c2ccccc2)oc1O (stereo not drawn) | > 100 | > 100 | > 100 | > 100 | > 100 | > 100 | > 100 | > 100 | > 100 | > 100 |  |  |  |  |
| CCN(CC)c1nc(N(C)C)c2ccc(OC)cc2n1 |  | 26.9 | 76.7 | 26.1 | 55.2 | 30.3 | > 100 | > 100 | 48.7 | 50 | 22 | 69.1 | 54.8 | 73.6 |
| Cc1ccc([N+](=O)[O-])cc1NC(=O)C(=O)Cc1cc(=O)oc2cc(O)ccc12 | > 100 | > 100 | > 100 | > 100 | > 100 | > 100 | > 100 | > 100 | > 100 |  |  |  |  |  |
| CC(C)C(Sc1nc(-c2ccccc2)c(-c2ccccc2)[nH]1)C(=O)N/N=C/c1ccc([N+](=O)[O-])cc1 (stereo not drawn) | 42.6 |  | 37.8 | 23.2 | 40.3 | 32.4 | 44.8 | 40 | 25.9 | 37.2 |  |  |  |  |
| CNC(=O)c1n[nH]n(Cc2ccccc2)c1=S |  | > 100 | > 100 | > 100 | > 100 |  | > 100 |  | > 100 | > 100 | > 100 | > 100 | > 100 | > 100 |
| Cc1ccc(S(=O)(=O)N/N=C/c2oc(-c3ccccc3Cl)c(-c3ccccc3Cl)c2[N+](=O)[O-])cc1 | 61.8 | 47.9 | 43.5 | > 100 |  | 26 | 34.2 | > 100 | 66.6 | > 100 |  |  |  |  |
| CCOP(=O)(OCC)/C(C#N)=C/c1ccc[nH]1 |  |  | > 100 | > 100 | > 100 | > 100 | > 100 | > 100 | > 100 | > 100 |  |  |  |  |
| CCCC(=O)/C=C/S/C=C/C(=O)CCC |  |  | 42.6 | > 100 | 17.9 | 4.2 | 9.69 | > 100 | 28 | 6.05 |  | 9.05 |  | > 100 |
| COc1cc2c(oc(=O)c3cc4ccoc4c(OC)c32)c2cccc(O)c12 | > 100 | > 100 | > 100 | > 100 | > 100 | > 100 | > 100 | > 100 | > 100 | > 100 |  |  |  |  |

| SMILES | TGI [1] [µM] | TGI [2] [µM] | TGI [3] [µM] | TGI [4] [µM] | TGI [5] [µM] | TGI [6] [µM] | TGI [7] [µM] | TGI [8] [µM] | TGI [9] [µM] | TGI [10] [µM] | TGI [11] [µM] | TGI [12] [µM] | TGI [13] [µM] | TGI [14] [µM] |
| --- | --- | --- | --- | --- | --- | --- | --- | --- | --- | --- | --- | --- | --- | --- |
| Cc1nc2c(n1CCC(C)C)C(=O)c1ccccc1C2=O |  | > 100 | 50.7 | > 100 | > 100 | 55.9 |  | 43.1 | 64.3 | > 100 |  |  |  |  |
| C[C@@H]1OC(=O)C[C@H]2CC(=O)N(CCC3CN(S(=O)(=O)C(F)(F)F)c4ccc(Cc5ccc6c(c5)C(CCN5C[C@H]7[C@@H](CC(=O)O[C@H]7C)CC5=O)CN6S(=O)(=O)C(F)(F)F)cc43)C[C@@H]21 (stereo partly drawn) | > 100 | > 100 | > 100 |  | > 100 |  | > 100 | > 100 |  | > 100 |  | > 100 | > 100 | > 100 |
| Cc1ccc(NC(=O)C(=O)C2NC(=S)NC2=O)c([N+](=O)[O-])c1 (stereo not drawn) | > 100 | > 100 | > 100 | > 100 | > 100 | > 100 | > 100 | > 100 | > 100 | > 100 |  |  |  |  |
| COc1ccc(CC2NCCc3cc(OC)c(OC)cc32)cc1 (stereo not drawn) |  | > 100 | > 100 | > 100 | > 100 | > 100 | > 100 | > 100 | > 100 | > 100 |  |  |  |  |
| CCN(CC)CCC(=O)N1CCc2c([nH]c3ccccc23)C1c1cccnc1 (stereo not drawn) | > 100 | > 100 | > 100 | > 100 |  | > 100 | > 100 | > 100 | > 100 | > 100 |  |  |  |  |
| O=C1c2ccccc2C(=O)C2C3c4ccccc4C(c4ccccc43)C12 (stereo not drawn) |  | 88.8 | > 100 | 79.4 | > 100 | > 100 |  | 34.9 | 61.5 | > 100 |  |  |  |  |
| CC(=O)OCC1OC(n2c3c(cc(C#N)c2=S)CCCCCC3)C(OC(C)=O)C(OC(C)=O)C1OC(C)=O (stereo not drawn) | > 100 | > 100 | > 100 | > 100 | > 100 | > 100 | > 100 | > 100 | > 100 |  |  | > 100 | > 100 | 30.4 |
| Cc1ccc(S(=O)C[C@@]2(C(F)F)NC(=O)NC2=O)cc1 (stereo partly drawn) | > 100 | > 100 | > 100 | > 100 | > 100 | > 100 | > 100 | > 100 |  | > 100 |  | > 100 | > 100 | > 100 |
| COc1cc(C2c3[nH]c4ccc(F)cc4c3C[C@H]3COC(=O)N23)cc(OC)c1O (stereo partly drawn) | 25.6 | 28.4 | 21.6 | 26.8 | 32.3 | 35.5 | 49.2 | 64.5 | 35.5 |  |  | > 100 | > 100 | > 100 |
| O/N=C1/CCCCCC1NO (stereo not drawn) |  | > 100 | > 100 | > 100 | > 100 |  | > 100 | > 100 | > 100 | > 100 | > 100 | > 100 | > 100 | > 100 |
| CC(C)/C(Cl)=N\OC(=O)Nc1ccc(F)c([N+](=O)[O-])c1 | 41.7 | > 100 | 32 | 35.3 | 50.1 | 2.45 | 42.8 | 27.6 | 16.5 | 7.56 | 29.4 | 35.2 | 32.2 |  |
| C[N+](C)(C)Cc1c(CC#N)[nH]c2ccccc12 | > 100 | > 100 | > 100 | > 100 | > 100 | > 100 | > 100 | > 100 | > 100 | > 100 |  |  |  |  |
| COP(=O)(OC)C(O)/C=C(\Cl)c1ccc(Cl)cc1 (stereo not drawn) |  |  | > 100 | > 100 | > 100 | > 100 | > 100 | > 100 | > 100 | > 100 |  | 55.7 | > 100 | > 100 |
| CC(=O)OC1(C#N)CC2OC1C1C2N1C(=O)OC(C)(C)C (stereo not drawn) | > 100 | > 100 | > 100 |  | > 100 | > 100 | > 100 | > 100 | > 100 | > 100 |  |  |  |  |
| Cc1cc(NS(=O)(=O)c2ccc(NC(=O)c3cccc4cc5ccccc5nc34)cc2)no1 | 37 |  | 66.4 | > 100 |  | 33.8 | 57.3 | > 100 | 43.3 | 70.2 |  |  |  |  |
